Test system: MSCs
Assay: Whole genome expression analysis (Illumina microarray) of treated MSCs
Type: cell-based, Human
Description: MSCs were seeded in T25 flasks at 5000 cells/cm^2 and allowed to attach overnight in proliferation medium. […] After 48 hours, RNA was isolated as described above. From 500 ng of RNA, cRNA was synthesized using the Illumina TotalPrep RNA amplification Kit (Ambion), according to the manufacturer's protocol and the quality of RNA and cRNA was verified on a Bioanalyzer 2100 (Agilent). Microarrays were performed using Illumina HT-12 v4 expression Beadchips, according to the manufacturer's protocol. Briefly, 750 ng of cRNA was hybridized on the array overnight after which the array was washed and blocked. Then, by addition of streptavidin Cy-3 a fluorescent signal was developed. Arrays were scanned on an Illumina iScan reader and raw intensity values were background corrected in GenomeStudio (Illumina). Further data processing and statistical testing were performed with R and Bioconductor statistical software (www.bioconductor.org), using package lumi. Raw intensity values were transformed using variance stabilization and a quantile normalization was performed. A linear modelling approach with empirical Bayesian methods, as implemented in Limma package (54), was applied for differential expression analysis of the resulting probe-level expression values. A gene list, containing only those genes with an absolute 1.5-fold change between different treatments, was uploaded to Ingenuity Pathway Analysis (IPA) software and used for core analysis. Pathways or networks with a p-value of 0.05 were considered statistically significant.

c1cnc2c(c1)ccc1cccnc12 [PHE, 1, 10-phenanthroline]
logFC(D142_PHE - D142_BAS) DLX5 (ProbeID ILMN_1759598): -2,28 | logFC(D142_PHE - D142_BAS) C4orf18 (ProbeID ILMN_1761941): -2,15 | logFC(D142_PHE - D142_BAS) AK3L1 (ProbeID ILMN_1764090): 3,40 | logFC(D142_PHE - D142_BAS) JARID2 (ProbeID ILMN_1764177): 2,12 | logFC(D142_PHE - D142_BAS) MUM1 (ProbeID ILMN_1764764): -2,05 | logFC(D142_PHE - D142_BAS) OLFML2B (ProbeID ILMN_1765557, PHE vs BAS): -3,04 | logFC(D142_PHE - D142_BAS) LOC399942 (ProbeID ILMN_1765701, PHE vs BAS): -2,98 | logFC(D142_PHE - D142_BAS) ENO2 (ProbeID ILMN_1765796): 4,72 | logFC(D142_PHE - D142_BAS) KCNK2 (ProbeID ILMN_1765990, PHE vs BAS): -2,82 | logFC(D142_PHE - D142_BAS) C10orf10 (ProbeID ILMN_1767556): 3,71 | logFC(D142_PHE - D142_BAS) HIST2H2AC (ProbeID ILMN_1768973): 3,39 | logFC(D142_PHE - D142_BAS) ISOC2 (ProbeID ILMN_1769158): -2,08 | logFC(D142_PHE - D142_BAS) KRT34 (ProbeID ILMN_1770228): 2,77 | logFC(D142_PHE - D142_BAS) CNN2 (ProbeID ILMN_1770290, PHE vs BAS): -3,30 | logFC(D142_PHE - D142_BAS) ANGPTL2 (ProbeID ILMN_1772612, PHE vs BAS): -2,93 | logFC(D142_PHE - D142_BAS) EML3 (ProbeID ILMN_1772644): -2,23 | logFC(D142_PHE - D142_BAS) ZNF395 (ProbeID ILMN_1772876): 3,66 | logFC(D142_PHE - D142_BAS) GAS1 (ProbeID ILMN_1772910, PHE vs BAS): -3,75 | logFC(D142_PHE - D142_BAS) C16orf72 (ProbeID ILMN_1773407): 2,40 | logFC(D142_PHE - D142_BAS) LOC441054 (ProbeID ILMN_1774390): 2,68 | logFC(D142_PHE - D142_BAS) FBLN2 (ProbeID ILMN_1774602, PHE vs BAS): -2,40 | logFC(D142_PHE - D142_BAS) SMOX (ProbeID ILMN_1775380): 2,29 | logFC(D142_PHE - D142_BAS) SLC2A3 (ProbeID ILMN_1775708): 3,23 | logFC(D142_PHE - D142_BAS) BTG1 (ProbeID ILMN_1775743): 2,36 | logFC(D142_PHE - D142_BAS) MYL9 (ProbeID ILMN_1776953): -2,25 | logFC(D142_PHE - D142_BAS) STAT1 (ProbeID ILMN_1777325): -2,01 | logFC(D142_PHE - D142_BAS) LOC731007 (ProbeID ILMN_1777499): 2,46 | logFC(D142_PHE - D142_BAS) KCTD11 (ProbeID ILMN_1777513): 3,02 | logFC(D142_PHE - D142_BAS) LOC644774 (ProbeID ILMN_1779258): 3,09 | logFC(D142_PHE - D142_BAS) CPA4 (ProbeID ILMN_1784294): 5,44 | logFC(D142_PHE - D142_BAS) TUBA4A (ProbeID ILMN_1784300): 2,80 | logFC(D142_PHE - D142_BAS) SPOCD1 (ProbeID ILMN_1784948, PHE vs BAS): -3,46 | logFC(D142_PHE - D142_BAS) PRKD1 (ProbeID ILMN_1785891, PHE vs BAS): -2,51 | logFC(D142_PHE - D142_BAS) UHRF1 (ProbeID ILMN_1786065): -2,25 | logFC(D142_PHE - D142_BAS) PSME2 (ProbeID ILMN_1786612, PHE vs BAS): -2,64 | logFC(D142_PHE - D142_BAS) MFAP2 (ProbeID ILMN_1787981): -2,29 | logFC(D142_PHE - D142_BAS) COL11A1 (ProbeID ILMN_1789507, PHE vs BAS): -3,53 | logFC(D142_PHE - D142_BAS) GBE1 (ProbeID ILMN_1789702): 2,68 | logFC(D142_PHE - D142_BAS) Mar-04 (ProbeID ILMN_1789991): 2,06 | logFC(D142_PHE - D142_BAS) PRRX2 (ProbeID ILMN_1790338, PHE vs BAS): -2,93 | logFC(D142_PHE - D142_BAS) C6orf125 (ProbeID ILMN_1790461): -2,25 | logFC(D142_PHE - D142_BAS) LUM (ProbeID ILMN_1790529, PHE vs BAS): -3,46 | logFC(D142_PHE - D142_BAS) CRISPLD2 (ProbeID ILMN_1790689): -2,32 | logFC(D142_PHE - D142_BAS) PNMA2 (ProbeID ILMN_1790778): 2,46 | logFC(D142_PHE - D142_BAS) CXCL12 (ProbeID ILMN_1791447, PHE vs BAS): -3,48 | logFC(D142_PHE - D142_BAS) DPYSL4 (ProbeID ILMN_1792356): 3,91 | logFC(D142_PHE - D142_BAS) TMEM158 (ProbeID ILMN_1792455): 3,06 | logFC(D142_PHE - D142_BAS) HIST1H2AC (ProbeID ILMN_1792689): 2,10 | logFC(D142_PHE - D142_BAS) SERTAD1 (ProbeID ILMN_1794017): 2,93 | logFC(D142_PHE - D142_BAS) NDUFS8 (ProbeID ILMN_1794132): -2,07 | logFC(D142_PHE - D142_BAS) HAS3 (ProbeID ILMN_1794501, PHE vs BAS): -2,42 | logFC(D142_PHE - D142_BAS) CAMK2N1 (ProbeID ILMN_1794863): 2,88 | logFC(D142_PHE - D142_BAS) OKL38 (ProbeID ILMN_1795963): 2,72 | logFC(D142_PHE - D142_BAS) HIST1H2BK (ProbeID ILMN_1796179): 2,23 | logFC(D142_PHE - D142_BAS) GDF5 (ProbeID ILMN_1796471): -2,25 | logFC(D142_PHE - D142_BAS) C3orf58 (ProbeID ILMN_1797372): 2,45 | logFC(D142_PHE - D142_BAS) HMGCS1 (ProbeID ILMN_1797728): -2,20 | logFC(D142_PHE - D142_BAS) AK3L1 (ProbeID ILMN_1798249): 3,18 | logFC(D142_PHE - D142_BAS) CXCR7 (ProbeID ILMN_1798360): 2,96 | logFC(D142_PHE - D142_BAS) MCM6 (ProbeID ILMN_1798654): -2,31 | logFC(D142_PHE - D142_BAS) RARRES1 (ProbeID ILMN_1800091): -2,22 | logFC(D142_PHE - D142_BAS) HMOX1 (ProbeID ILMN_1800512): 2,82 | logFC(D142_PHE - D142_BAS) LDB2 (ProbeID ILMN_1800697, PHE vs BAS): -2,38 | logFC(D142_PHE - D142_BAS) PLIN2 (ProbeID ILMN_1801077): 3,49 | logFC(D142_PHE - D142_BAS) RLF (ProbeID ILMN_1801156): 2,05 | logFC(D142_PHE - D142_BAS) SIAH2 (ProbeID ILMN_1801313): 2,15 | logFC(D142_PHE - D142_BAS) METRNL (ProbeID ILMN_1801610): 2,03 | logFC(D142_PHE - D142_BAS) CCNB2 (ProbeID ILMN_1801939, PHE vs BAS): -2,66 | logFC(D142_PHE - D142_BAS) GLT8D2 (ProbeID ILMN_1802654): -2,05 | logFC(D142_PHE - D142_BAS) FAM162A (ProbeID ILMN_1803647): 2,36 | logFC(D142_PHE - D142_BAS) CXCL12 (ProbeID ILMN_1803825, PHE vs BAS): -2,38 | logFC(D142_PHE - D142_BAS) VEGFA (ProbeID ILMN_1803882): 4,07 | logFC(D142_PHE - D142_BAS) SRXN1 (ProbeID ILMN_1804822): 2,32 | logFC(D142_PHE - D142_BAS) SLC14A1 (ProbeID ILMN_1805561, PHE vs BAS): -2,57 | logFC(D142_PHE - D142_BAS) PFKP (ProbeID ILMN_1805737): 2,32 | logFC(D142_PHE - D142_BAS) TK1 (ProbeID ILMN_1806037): -2,14 | logFC(D142_PHE - D142_BAS) SLC6A8 (ProbeID ILMN_1806349): 2,45 | logFC(D142_PHE - D142_BAS) FMO3 (ProbeID ILMN_1808657, PHE vs BAS): -2,85 | logFC(D142_PHE - D142_BAS) PGF (ProbeID ILMN_1809813): 3,28 | logFC(D142_PHE - D142_BAS) NDRG1 (ProbeID ILMN_1809931): 4,06 | logFC(D142_PHE - D142_BAS) P8 (ProbeID ILMN_1810560): 2,09 | logFC(D142_PHE - D142_BAS) KIAA0367 (ProbeID ILMN_1810628): -2,12 | logFC(D142_PHE - D142_BAS) PDE5A (ProbeID ILMN_1810836, PHE vs BAS): -3,04 | logFC(D142_PHE - D142_BAS) LOC402221 (ProbeID ILMN_1811909): -2,18 | logFC(D142_PHE - D142_BAS) FAM20A (ProbeID ILMN_1812091): -2,34 | logFC(D142_PHE - D142_BAS) HIST1H2BK (ProbeID ILMN_1813314): 2,41 | logFC(D142_PHE - D142_BAS) KIAA1199 (ProbeID ILMN_1813704, PHE vs BAS): -4,06 | logFC(D142_PHE - D142_BAS) FKSG30 (ProbeID ILMN_1814998): -2,20 | logFC(D142_PHE - D142_BAS) PIM1 (ProbeID ILMN_1815023): 2,29 | logFC(D142_PHE - D142_BAS) PLAGL1 (ProbeID ILMN_1815121): 2,24 | logFC(D142_PHE - D142_BAS) DHCR7 (ProbeID ILMN_1815626): -2,12 | logFC(D142_PHE - D142_BAS) ERCC2 (ProbeID ILMN_1815859): -2,17 | logFC(D142_PHE - D142_BAS) (ProbeID ILMN_1816244, no gene name printed): 2,02

Source: patent publication EP2607478A1, “Phenanthroline treated MSC” (Universiteit Twente, priority 2011, dated 2013)
